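How tested: cells in 96-well plates exposed to compound for 48 hours at five concentrations. Here, GI50 denotes the concentration required for 50% inhibition of growth. TGI: concentration producing complete growth inhibition.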
How the values were obtained:
Test in all cases: NCI-60 cell line screen, 48 h
[1] = test system: PC-3 prostate
[2] = test system: OVCAR-5 ovarian
[3] = test system: SK-MEL-28 melanoma
[4] = test system: OVCAR-8 ovarian
[5] = test system: SR leukemia
[6] = test system: SN12C renal
[7] = test system: T-47D breast
[8] = test system: UACC-257 melanoma
[9] = test system: MALME-3M melanoma
[10] = test system: NCI-H226 lung

SMILES: O=c1nc(Nc2cccc(Cl)c2)oc2cc(Cl)oc(=O)c12
- GI50 [1]: 10.8 µM
- TGI [1]: 66.5 µM
- GI50 [2]: 18.5 µM
- TGI [2]: 46.2 µM
- GI50 [3]: 8.76 µM
- TGI [3]: 22.7 µM
- GI50 [4]: 7.06 µM
- TGI [4]: 32.1 µM
- GI50 [5]: 2.88 µM
- TGI [5]: 12.4 µM
- GI50 [6]: 10.4 µM
- TGI [6]: > 100 µM
- GI50 [7]: 5.29 µM
- TGI [7]: 27.1 µM
- GI50 [8]: 10.3 µM
- TGI [8]: 23.9 µM
- GI50 [9]: 4.36 µM
- TGI [9]: 18.8 µM
- GI50 [10]: 17.1 µM
- TGI [10]: 73.6 µM

SMILES: O=C(c1ccc2ncc(-c3nc(NC4CC4)ncc3F)n2c1)N1CCOCC1
- GI50 [1]: 2.14 µM
- TGI [1]: 8.86 µM
- GI50 [2]: 2.16 µM
- TGI [2]: 8.97 µM
- GI50 [3]: 2.47 µM
- TGI [3]: 7.6 µM
- GI50 [4]: 2.44 µM
- TGI [4]: > 100 µM
- GI50 [5]: 0.513 µM
- TGI [5]: 4.15 µM
- GI50 [6]: 2.52 µM
- TGI [6]: 11.8 µM
- GI50 [7]: 2 µM
- TGI [7]: 7.49 µM
- GI50 [8]: 2.71 µM
- TGI [8]: 8.43 µM
- GI50 [9]: 3.33 µM
- TGI [9]: 8.35 µM
- GI50 [10]: 2.05 µM
- TGI [10]: 6.39 µM

SMILES: CC/C=C\C[C@H](O)C/C=C1/C(=O)C=C[C@@H]1C/C=C\CCCC(=O)N(C)C
- GI50 [1]: 1.78 µM
- TGI [1]: 4.47 µM
- GI50 [2]: 2.46 µM
- TGI [2]: 5.51 µM
- GI50 [3]: 1.96 µM
- TGI [3]: 4.31 µM
- GI50 [4]: 1.54 µM
- TGI [4]: 11.4 µM
- GI50 [5]: 0.376 µM
- TGI [5]: 12.3 µM
- GI50 [6]: 2.6 µM
- TGI [6]: 10.9 µM
- GI50 [7]: 2.57 µM
- TGI [7]: 11.8 µM
- GI50 [8]: 2.37 µM
- TGI [8]: 7.31 µM
- GI50 [9]: 3.05 µM
- TGI [9]: 8.81 µM
- GI50 [10]: 2.57 µM
- TGI [10]: 7.84 µM

SMILES: CC(=O)O[C@H]1CC[C@@]2(C)C(=CC[C@H]3[C@@H]4C/C(=C\c5cccc(OCCN6CCOCC6)c5)[C@H](OC(C)=O)[C@@]4(C)CC[C@@H]32)C1
- GI50 [1]: 4.5 µM
- TGI [1]: 16.4 µM
- GI50 [2]: 15 µM
- TGI [2]: 56.2 µM
- GI50 [3]: 5.48 µM
- TGI [3]: 17.6 µM
- GI50 [4]: 8.69 µM
- TGI [4]: 20.8 µM
- GI50 [5]: 5.47 µM
- TGI [5]: 18.6 µM
- GI50 [6]: 25 µM
- TGI [6]: > 100 µM
- GI50 [7]: 4.18 µM
- TGI [7]: 22.5 µM
- GI50 [8]: 2.79 µM
- TGI [8]: 5.04 µM
- GI50 [9]: 11.4 µM
- TGI [9]: 23.5 µM
- GI50 [10]: 17.9 µM
- TGI [10]: 85.9 µM

SMILES: Cc1nc2ccc(Nc3nc(NCCN4CCOCC4)nc(Nc4ccc(F)cc4)n3)cc2n1Cc1ccccc1
- GI50 [1]: 3.26 µM
- TGI [1]: 16.2 µM
- GI50 [2]: 2.71 µM
- TGI [2]: 13.6 µM
- GI50 [3]: 1.56 µM
- TGI [3]: 2.94 µM
- GI50 [4]: 3.28 µM
- TGI [4]: > 100 µM
- GI50 [5]: 1.46 µM
- TGI [5]: 5.23 µM
- GI50 [6]: 5.57 µM
- TGI [6]: > 100 µM
- GI50 [7]: 2.66 µM
- TGI [7]: 18.8 µM
- GI50 [8]: 1.74 µM
- TGI [8]: 3.27 µM
- GI50 [9]: 2.04 µM
- TGI [9]: 3.6 µM
- GI50 [10]: 4.02 µM
- TGI [10]: 27.9 µM

SMILES: C#CC1(O)C(COP(=O)(O)OC2CC(n3cc(F)c(=O)[nH]c3=O)OC2CO)OC(n2ccc(N)nc2=O)C1O (stereo not given)
- GI50 [1]: < 0.032 µM
- TGI [1]: 29.7 µM
- GI50 [2]: 0.154 µM
- TGI [2]: > 33.5 µM
- GI50 [3]: 0.0474 µM
- TGI [3]: 1.72 µM
- GI50 [4]: < 0.01 µM
- TGI [4]: 14.5 µM
- GI50 [5]: < 0.01 µM
- TGI [5]: 0.142 µM
- GI50 [6]: < 0.0106 µM
- TGI [6]: > 100 µM
- GI50 [7]: < 0.0157 µM
- TGI [7]: > 51.7 µM
- GI50 [8]: 0.0663 µM
- TGI [8]: 2.18 µM
- GI50 [9]: 0.117 µM
- TGI [9]: 5.07 µM
- GI50 [10]: 0.0614 µM
- TGI [10]: > 36.1 µM

SMILES: O=C(NCCCNc1cc(-c2cn(-c3ccccc3)nc2-c2cccc(O)c2)ccn1)c1ccccc1
- GI50 [1]: 2.1 µM
- TGI [1]: 15.2 µM
- GI50 [2]: 3.93 µM
- TGI [2]: 75 µM
- GI50 [3]: 2.18 µM
- TGI [3]: 6.08 µM
- GI50 [4]: 4.45 µM
- TGI [4]: 37.7 µM
- GI50 [5]: 1.68 µM
- TGI [5]: 5.35 µM
- GI50 [6]: 6 µM
- TGI [6]: > 100 µM
- GI50 [7]: 1.57 µM
- TGI [7]: 6.89 µM
- GI50 [8]: 2.07 µM
- TGI [8]: 4.4 µM
- GI50 [9]: 1.73 µM
- TGI [9]: 4.53 µM
- GI50 [10]: 2.72 µM
- TGI [10]: 17.9 µM

SMILES: O=C1C=C(Br)C(=O)C12CCc1ccccc12 (stereo not given)
- TGI [1]: 32.5 µM
- TGI [2]: 33.3 µM
- TGI [3]: 27.2 µM
- TGI [4]: 64.6 µM
- TGI [5]: 17.3 µM
- TGI [6]: 35 µM
- TGI [7]: 50.4 µM
- TGI [8]: 41.3 µM
- TGI [9]: 29.5 µM
- TGI [10]: 35.8 µM

SMILES: CN1CCCN(C)C1c1cc([N+](=O)[O-])ccc1O
- TGI [1]: 72.9 µM
- TGI [2]: > 100 µM
- TGI [3]: 82.3 µM
- TGI [4]: > 100 µM
- TGI [5]: 59.3 µM
- TGI [6]: 85.7 µM
- TGI [7]: > 100 µM
- TGI [8]: 61.3 µM
- TGI [9]: 63.7 µM
- TGI [10]: 82.5 µM

SMILES: NC1CCN(c2nc(Nc3cccc(C(F)(F)F)c3)c3c(=O)[nH]ccc3n2)CC1
- GI50 [1]: 1.78 µM
- TGI [1]: 3.59 µM
- GI50 [2]: 1.68 µM
- TGI [2]: 3.44 µM
- GI50 [3]: 1.82 µM
- TGI [3]: 3.32 µM
- GI50 [4]: 2.06 µM
- TGI [4]: 4.91 µM
- GI50 [5]: 0.774 µM
- TGI [5]: 2.82 µM
- GI50 [6]: 1.37 µM
- TGI [6]: 2.8 µM
- GI50 [7]: 1.56 µM
- TGI [7]: 3.26 µM
- GI50 [8]: 2.06 µM
- TGI [8]: 3.98 µM
- GI50 [9]: 1.88 µM
- TGI [9]: 3.83 µM
- GI50 [10]: 1.86 µM
- TGI [10]: 3.7 µM

— PubChem BioAssay (NCI)
